Reference: US20220354852A1, “TARGETING WNT SIGNALING FOR IMPROVED GLIOMA IMMUNOTHERAPY” (CITY OF HOPE, priority 2021, published 2022)
“Also recorded” adds a separate entry of the source.

Assays:
[1] = test system: subcutaneous murine K-luc GBM tumors; test: NanoString mouse immune panel of subcutaneous K-luc tumors; assay type: in vivo; settings: 50 mg/kg/day, compared with untreated controls on day 21
Source text: FIG. 23. NanoString analysis of subcutaneous K-luc tumors using the mouse immune panel. 750 mRNA concentration measurements, measured in baseline cells first at day 0 and then in subcutaneously transplanted tumors in separate mice at day 7, 14, and 21 (n=2). Sample 507 is a tumor that was not treated with ICG-001, was harvested on day 21, and is a baseline for comparison for days 7, 14, and 21. The log10 fold-change in mRNA expression was considered between 507 and the other samples.
Animal studies. Syngeneic mice (C57BL/6) of 8-12 weeks of age were implanted with subcutaneous K-Luc tumors (n=8). 7 days after, when tumors became palpable and after confirmation of the tumor presence with BLU imaging, mice were implanted with Alzet minipumps with ICG001 (50 mg/kg/day). Pumps were continuously providing a daily dose of ICG-001. Tumor tissues were harvested on days 7, 14, 21 post pump implantation and tumors were prepared for IHC (paraffin sections) and Nanostring analysis.
NanoString analysis of subcutaneous murine K-luc GBM tumors The ICG-001 and saline control treated tumors were harvested on days 7, 14, and 21. Freshly frozen K-luc tumors were used for RNA isolation and NanoString analysis to determine endogenous immune response upon treatment with ICG-001. […]

[2] = test system: PBT017 and PBT106 derived lines that express high levels of the tumor antigen HER2; test: In vitro co-culture cytotoxicity assay, HER2-CAR T cells ± ICG-001; assay type: cell-based, human
Experimental: FIG. 2. Combinational strategy of CAR T cell-mediated tumor-antigen targeting with ICG-001 induced differentiation in glioma. […] (B) Cytotoxicity of HER2 CAR-T cells and tumor cells (1:5 ratio) was enhanced by ICG-001 at concentrations 1.25-5 μM. (C) Treatment of PBT138 patient glioma tumors with CAR T IL13Rα2+/−ICG-001.
FIG. 11. (A, B) Growth kinetics of human PBT glioma lines (PBT017, PBT030, PBT135, PBT144, and PBT147) treated with ICG-001 (0-10 μM) for 7 days and (C) mouse glioma cells (GL261, GL261-IL13, and K-luc) treated with ICG-001 (0-10 μM) for 4 days. Red boxes indicate PBT030 and PBT147 cell lines used for Nanostring and proteomics analysis. Scale bars represent S.D. of triplicate samples. (D-F) Growth kinetics of PBT017 (2,500 cells/well) treated with or without HER2-CAR T cells (500 cells/well) and with or without ICG-001 (0-5 μM). The red line is CAR T cell treatment only and the bottom three lines are with ICG-001. Experiment was done in quadruplicate and error bars indicate S.D.
FIG. 13 illustrates data resulting from the combination of ICG001 and CAR T cells toxicity in vitro using 2000 cells to start and 4 days (96-well Endpoint—cell count) according to certain embodiments.
FIG. 14 illustrates data resulting from the Combination of ICG001 and CAR T cells toxicity in vitro using 1000 cells to start and 4 days (96-well Endpoint—cell count) according to certain embodiments.
It has also been observed that ICG-001-induced differentiation of PBT017 and PBT138 (data not shown).
Next, the efficacy of a titrated dose of CAR T cells±ICG-001 to induce tumor cell killing in vitro was tested (FIG. 11D-F). The combination of HER2-engineered CAR T (HER2-CAR T) cells and IGC-001 was evaluated using in vitro co-culture assays.

O=C1[C@H](Cc2ccc(O)cc2)N2C(=O)CCN(C(=O)NCc3ccccc3)[C@H]2CN1Cc1cccc2ccccc12 [ICG-001]
immune pathways (mRNA) in tumor versus untreated controls [1]: concentration dependent increase in immune pathways
cytotoxicity of HER2 CAR-T cells ([2]; CAR-T cells and tumor cells 1:5 ratio, ICG-001 1.25-5 μM): enhanced
tumor cell killing at given effector: target cell ratios ([2]; HER2-CAR T cells + ICG-001, effector: target cell ratios of 1:5 and 1:10): Enhanced killing
tumor cell killing, ICG-001 in combination with HER2-CAR T cells ([2]; PBT017 (and PBT106) lines, ICG-001 0-5 μM): synergistic cytotoxicity; also recorded: synergistic killing
killing by CAR T cells of ICG-001-treated tumor cells ([2]; Tumor[PBT106.eGFP]: CAR T [Her2] cells in ratios (1:2; 1:2, 1:4)): improved killing by CAR T cells
